“Also recorded” adds a separate entry of the source.
What was measured:
[1] = tested on: hippocampus of the brain; assay: In vivo mitophagy in hippocampus of the brain; design: species or system mouse; details: 25 mg/kg/day i.p. for 5 days
Protocol: (§1) Fluorescent samples were examined with a Zeiss LSM 780 confocal microscope (Carl Zeiss MicroImaging). As previously described^2, fluorescence of mt-Keima was imaged in two channels via two sequential excitations (458 nm, green; 561 nm, red) and using a 570- to 695-nm emission range. Confocal experiments for parkin translocation were performed using a HeLa cell line stably expressing YFP-Parkin plated on 35 mm coverglass #1.5 chamber dishes (MatTek). These cells were treated for 2 h with DMSO as vehicle control or with A/O. YFP was imaged with a 514-nm excitation and 520- to 570-emission filters. Representative confocal images were processed using Imaris software by contrast linear stretch only. Calculation of mitophagy based on mt-Keima signal was performed using Zeiss ZEN software as previously described^2. The average of four images from each tissue sample was taken, and the values were normalized to the average value seen in the controls, assigned the value of one.
(§2) The mt-Keima mouse. […] The mice were lightly anesthetized with isoflurane and the ejection fraction, fractional shortening, and ventricular chamber dimensions were determined using 2-D-guided M mode images. Ejection fraction, fractional shortening, ventricular chamber dimensions, and left ventricular mass were calculated automatically using the VevoLAB program. […]

[2] = tested on: heart tissue of mt-Keima mice; assay: In vivo mitophagy in heart, mt-Keima mice; design: species or system mouse; details: 25 mg/kg/day i.p. for 5 days
Protocol: as §1, §2

[3] = Tissue concentrations 24 h post-dose; format: in vivo, Male C57BL/6 Mice
Protocol: ST-539 was dissolved into 1% DMSO in Sesame oil and injected intraperitoneally (i.p.) at doses of 25 mg/kg. Serial blood samples were collected at 0.083, 0.25, 0.5, 1, 2, 4 and 8 hours post dosing. Mice were euthanized at 24 hours post dosing. A terminal blood sample was collected by cardiac puncture followed by harvesting the brain and heart. Transcardial perfusion was performed prior to brain collection. The blood samples were placed in microtubes pretreated with K2EDTA as an anticoagulant and kept on ice until centrifugation. The tissue samples were rinsed using cold distilled water to remove blood, blotted dry, weighed and stored on dry ice until LC/MS/MS analysis. Plasma was transferred into polypropylene tubes or 96-well plates, quick frozen on dry ice, and stored at −70±10 °C until LC/MS/MS analysis.

[4] = tested on: NDP52; assay: NDP52 level after A/O, immunoblotting; format: cell-based; details: Parkin positive cells, A/O 18 h, ST-539 3 μg/ml; not in WT HeLa or PINK1 KO cells
Protocol: HeLa cells and mouse embryonic fibroblasts (MEFs) were grown in Dulbecco's minimum essential medium (DMEM) with 10% fetal bovine serum (FBS) supplemented with penicillin-streptomycin. HeLa Parkin, PINK1 KO cells, WT and MFN2 KO cells were previously described. Cells stably expressing USP30 were generated using lentiviral vectors of pLVX-Puro-Myc-USP30. The USP30 plasmid was obtained from Addgene. The plasmid was transferred into a lentiviral vector and viral particles were prepared by transiently transfecting HEK293T using standard methods. For the drug treatment experiments, cells were incubated in medium containing a mixture of 5 μM oligomycin and 5 μM antimycin A (A/O; see figures for treatment times). In 18 h treatment, A/O were used in combination with 10 μM quinolyl-valyl-O-methylaspartyl-[−2,6-difluorophenoxy]-methyl ketone (QVD), a broad-spectrum caspase inhibitor. […]
Genetic suppression of USP30 in Parkin-overexpressing cells promotes the clearance of mitochondria in response to mitochondrial depolarizing agents. […] To investigate if the PINK 1/Parkin pathway is required for ST-539 induced mitophagy, we analyzed TOM20 ubiquitination in wild-type (WT) HeLa cells, which express little to no endogenous Parkin, as well as in WT and PINK1 knockout (KO) HeLa cells stably expressing YFP-tagged Parkin. […]

[5] = 24 Hours Post-dose, 25 mg/kg i.p., mean

CC(C)(C)NS(=O)(=O)c1cccc2c(NC(=O)C(Cc3ccccc3)NC(=O)c3ccccc3)cccc12 (stereo not drawn) [ST-539]
mitophagic flux in hippocampus [1]: remains unchanged | cardiac mitophagy (red mt-Keima signal in heart tissue) [2]: marked induction of the red signal in the heart tissue; also recorded: efficiently induces cardiac mitophagy | Brain concentration [3, 5]: 17.4 ng/g | Heart concentration [3, 5]: 37.0 ng/g | ST-539 detected in mouse brain homogenate ([3]; 24 h post-dose): modest concentrations | reduction in NDP52 level relative to vehicle treated cells [4]: more significant reduction

Source: patent publication US20260373103A1, “COMPOSITIONS AND METHODS FOR PREVENTING CARDIOMYOPATHY” (OHIO STATE INNOVATION FOUNDATION, priority 2022, published 2026)
